Data from patent publication US20250213701A1, “MEDICAMENT FOR TREATING HUMAN TUMOR BASED ON ERF3A-TARGETING PROTEOLYSIS MECHANISM” (SUZHOU DEGEN BIO-MEDICAL CO., LTD., priority 2022, published 2025).

Legend:
SRD5A1 = target: T1, SRD5A1 (Homo sapiens, UniProt P18405); test: Western blot assay in 22Rv1 cells: SRD5A1; format: cell-based; settings: different concentrations at 24 h, and 3 nM at different time points (FIGS. 7 and 8)
T1 construct: The downregulation of SRD5A1, SRD5A3, AR, ARV7, GSPT1 proteins in 22Rv1 cells by C59; endogenous in cells; host or cells: 22Rv1
T1 sequence (P18405 whole entry): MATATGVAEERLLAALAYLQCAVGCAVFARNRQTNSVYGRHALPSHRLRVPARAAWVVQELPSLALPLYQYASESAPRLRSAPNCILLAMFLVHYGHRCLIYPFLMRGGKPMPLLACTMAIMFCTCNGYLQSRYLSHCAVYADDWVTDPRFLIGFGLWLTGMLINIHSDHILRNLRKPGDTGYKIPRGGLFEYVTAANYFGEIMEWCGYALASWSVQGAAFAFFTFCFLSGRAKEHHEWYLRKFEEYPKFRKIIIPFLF
Description: (§1) Example 84: Western Blot Assay of Compound C59 in 22Rv1, PC-3, and HepG2 Cells
(§2) (1) Materials: 22Rv1, PC-3, and HepG2 cell, anti-SRD5A1 antibody (ab167606), anti-SRD5A2 antibody (ab124877), anti-SRD5A3 antibody (PA5-107029), anti-androgen receptor (AR) antibody (CST, No. 5153), anti-GSPT1 antibody (Abcam, ab234433), anti-GADPH antibody (CST, No. 5174), anti-c-Myc antibody (CST, No. 8583), anti-α-tublin antibody (CST, No. 2125), anti-rabbit IgG, HRP-linked antibody (CST, No. 7074), electrophoresis device and membrane transfer device (LIUYI, BEIJING; DYCZ-24DN)
(§3) Cell seeding: 22Rv1 (Cell Bank of the Chinese Academy of Sciences, TCHu100), PC-3 (Cell Bank of the Chinese Academy of Sciences, SCSP-532) and HepG2 cells (Cell Bank of the Chinese Academy of Sciences, TCHu72) were subcultured and trypsinized to prepare 6×10^5 cells/mL suspensions, seeded on 6-well plates (3 mL/well), and cultured overnight in a cell incubator at 5% CO2 and 37° C. […]
(§4) Protein quantification: The protein was quantified using a BCA protein quantification kit. […]
(§5) Western immunoblot assay (or Western blot, WB): SDS-PAGE gel at a proper concentration was prepared according to the molecular weight of the target protein: for example, the concentration of the separation gel was 8% and the concentration of the stacking gel was 5%. The loading volume was adjusted according to the protein quantification results. […]

AR = test: Western blot assay in 22Rv1 cells: AR; format: cell-based, human; settings: different concentrations at 24 h, and 3 nM at different time points (FIGS. 7 and 8)
Description: as §1, §2, §3, §4, §5

AGS cells = test: Anti-proliferative toxicity of C63 in tumor cell lines (CCK8): AGS; format: cell-based; settings: Homo sapiens, 72 h, 3 days, read-out: Inhibition rate
Experimental: (§6) Example 83: Detection of Anti-Proliferative Toxicity of C63 in Some Tumor Cell Lines
AGS cells (purchased from the Cell Bank of the Chinese Academy of Sciences, Cat. No. TCHu232) were subcultured in a culture medium (F12K medium+[…] dual-antibiotic solution+10% fetal bovine serum) in an incubator at […] and 37° C.
AGS cells were seeded at 2000 cells/well (90 μL) on a 96-well plate and cultured for 24 h.
(§7) 10 mM compound stock solutions were prepared in DMSO.
(§8) The compound stock solution was diluted with DMSO to give DMSO solutions 1-9 at concentrations of 0 μM, 2500 μM, 500 μM, 100 μM, 20 μM, 4 μM, 0.8 μM, 0.16 μM, and 0.032 μM.
(§9) 2 μL of each of solutions 1-9 was added to 98 μL of the medium to give mixed solutions 11-19 of the compound and the medium.
(§10) 10 μL of each of solutions 11-19 was added to the above cell seed solution to give a total volume of 100 μL (90 μL+10 μL).
(§11) The concentrations of the compound in the wells were 0 μM, 5.0 μM, 1.0 μM, 0.2 μM, 0.04 μM, 0.008 μM, 0.0016 μM, 0.00032 μM, and 0.000064 μM. All concentrations were in triplicate.
(§12) After the above-treated cells were cultured for 3 days, 10 μL of the CCK8 solution (DOJINDO, Cat. No. PF725) was added to each well. The plate was incubated in an incubator at 37° C. for 1-4 h and then detected on a microplate reader for the reading at 450 nm.

KATO III cells = test: Anti-proliferative toxicity of C63 in tumor cell lines (CCK8): KATO III; format: cell-based; settings: Homo sapiens, 72 h, 3 days, read-out: Inhibition rate
Experimental: as §6
KATOIII cells (purchased from the Cell Bank of the Chinese Academy of Sciences, Cat. No. TCHu229) were subcultured in a culture medium (IMDM medium+1% penicillin-streptomycin dual-antibiotic solution+10% fetal bovine serum) in an incubator at 5% carbon dioxide and 37° C.
KATO III cells were seeded at 8000 cells/well (90 μL) on a 96-well plate and cultured for 24 h.
as §7, §8, §9, §10, §11, §12

Row | downregulation of SRD5A1 protein (Western blot) (SRD5A1) | SMILES | downregulation of AR protein (Western blot) (AR) | inhibition at 64 pM (AGS cells; 0.000064 μM) | inhibition at 0.00032 µM (AGS cells; 0.000320 μM) | inhibition at 0.0016 µM (AGS cells; 0.001600 μM) | inhibition at 0.008 µM (AGS cells; 0.008000 μM) | inhibition at 0.04 µM (AGS cells; 0.040000 μM) | inhibition at 0.2 µM (AGS cells; 0.200000 μM) | inhibition at 1 µM (AGS cells; 1.000000 μM) | inhibition at 5 µM (AGS cells; 5.000000 μM) | inhibition at 64 pM (KATO III cells; 0.000064 μM) | inhibition at 0.00032 µM (KATO III cells; 0.000320 μM) | inhibition at 0.0016 µM (KATO III cells; 0.001600 μM) | inhibition at 0.008 µM (KATO III cells; 0.008000 μM) | inhibition at 0.04 µM (KATO III cells; 0.040000 μM) | inhibition at 0.2 µM (KATO III cells; 0.200000 μM) | inhibition at 1 µM (KATO III cells; 1.000000 μM) | inhibition at 5 µM (KATO III cells; 5.000000 μM)
1 | downregulation | C[C@]12C=CC(=O)N[C@@H]1CC[C@@H]1[C@@H]2CC[C@]2(C)[C@@H](C(=O)Nc3cccc(N[C@@H]4CCC[C@@H](Nc5cccc6c5C(=O)N(C5CCC(=O)NC5=O)C6=O)C4)c3)CC[C@@H]12 (stereo partly drawn) [C59, N-(3-(N—(N-(4-(2-(3-(2,6-dioxopiperidine))-isoindole-1,3-dione))-1R,3R-cyclohexanediamine))phenyl)-3-oxo-4-aza-5α-androst-1-ene-17β-carboxamide] | downregulation | – | – | – | – | – | – | – | – | – | – | – | – | – | – | – | –
2 | – | C[C@]12C=CC(=O)N[C@@H]1CC[C@@H]1[C@@H]2CC[C@]2(C)[C@@H](C(=O)Nc3cccc(N[C@@H]4CCC[C@@H](Nc5cccc6c5C(=O)N([C@H]5CCC(=O)NC5=O)C6=O)C4)c3)CC[C@@H]12 [C63, N-(3-(N—(N-(4-(2-(3S-(2,6-dioxopiperidine))-isoindole-1,3-dione))-1R,3R-cyclohexanediamine))phenyl)-3-oxo-4-aza-5α-androst-1-ene-17β-carboxamide] | – | 17.5% | 11.1% | 20.4% | 44.2% | 59.7% | 74% | 79.8% | 80.8% | 1.09% | 2.17% | 15.9% | 51.5% | 67.9% | 74.8% | 74.7% | 72.3%
